Values joined by “and” are separate entries in the source; they are usually repeats but may differ in a detail not shown here. Equal values may be shown once. Inconclusive results and toxic doses are left out. Cut-off read from the data, not from the text of the source: active = T/C of 150% or more; inactive = T/C below 125%.
System: L1210 leukemia ip in BDF1 mice, survival T/C
Experiment: NCI In Vivo Anticancer Drug Screen. Data for tumor model L1210 Leukemia (intraperitoneal) in B6D2F1 (BDF1) mice
Settings: endpoint: mean survival time, higher = longer survival
In short: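 In this screen, tumor-bearing mice given compound are compared to those given vehicle, and their survival values are reported as a treated-to-control quotient.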

[1] = dose: 100.0 mg/kg/injection, schedule: Q04DX002 (ip), vehicle: saline
[2] = dose: 200.0 mg/kg/injection, schedule: Q04DX002 (ip), vehicle: saline
[3] = dose: 100.0 mg/kg/injection, schedule: Q01DX001 (ip), vehicle: Klucel (hydroxypropylcellulose) (HPC)
[4] = dose: 200.0 mg/kg/injection, schedule: Q01DX001 (ip), vehicle: Klucel (hydroxypropylcellulose) (HPC)
[5] = dose: 100.0 mg/kg/injection, schedule: Q04DX003 (ip), vehicle: Klucel (hydroxypropylcellulose) (HPC)
[6] = dose: 200.0 mg/kg/injection, schedule: Q04DX003 (ip), vehicle: Klucel (hydroxypropylcellulose) (HPC)
[7] = dose: 400.0 mg/kg/injection, schedule: Q01DX001 (ip), vehicle: Klucel (hydroxypropylcellulose) (HPC)
[8] = dose: 400.0 mg/kg/injection, schedule: Q04DX003 (ip), vehicle: Klucel (hydroxypropylcellulose) (HPC)
[9] = dose: 75.0 mg/kg/injection, schedule: Q01DX001 (ip), vehicle: carboxymethylcellulose (CMC)
[10] = dose: 100.0 mg/kg/injection, schedule: Q01DX001 (ip), vehicle: carboxymethylcellulose (CMC)
[11] = dose: 200.0 mg/kg/injection, schedule: Q01DX001 (ip), vehicle: carboxymethylcellulose (CMC)
[12] = dose: 100.0 mg/kg/injection, schedule: Q01DX001 (ip), vehicle: saline
[13] = dose: 200.0 mg/kg/injection, schedule: Q01DX001 (ip), vehicle: saline
[14] = dose: 100.0 mg/kg/injection, schedule: Q01DX009 (ip), vehicle: saline with Tween-80
[15] = dose: 200.0 mg/kg/injection, schedule: Q01DX009 (ip), vehicle: saline with Tween-80

Measured: T/C

COC(=O)C(C)[P+](c1ccccc1)(c1ccccc1)c1ccccc1 (stereo unspecified)
inactive: dose: 1.25 mg/kg/injection, schedule: Q01DX009 (ip), vehicle: saline 108 % of control | dose: 1.65 mg/kg/injection, schedule: Q01DX009 (ip), vehicle: saline 104 % of control and 114 % of control | dose: 2.5 mg/kg/injection, schedule: Q01DX001 (ip), vehicle: saline 96 % of control | dose: 2.5 mg/kg/injection, schedule: Q01DX009 (ip), vehicle: saline 107 % of control and 119 % of control | dose: 3.75 mg/kg/injection, schedule: Q01DX009 (ip), vehicle: saline 109 % of control and 110 % of control | dose: 5.0 mg/kg/injection, schedule: Q01DX001 (ip), vehicle: saline 110 % of control | dose: 5.0 mg/kg/injection, schedule: Q01DX009 (ip), vehicle: saline 97 % of control

CNCC1C=CCCC1 (stereo unspecified)
inactive: [1] 93 % of control | [2] 100 % of control

NC(Cc1cc(I)c(Oc2ccc(O)c(I)c2)c(I)c1)C(=O)O (stereo unspecified)
inactive: dose: 25.0 micrograms/kg/injection, schedule: Q01DX Z (ip), vehicle: saline 86 % of control | dose: 50.0 micrograms/kg/injection, schedule: Q01DX Z (ip), vehicle: saline 92 % of control | dose: 100.0 micrograms/kg/injection, schedule: Q01DX Z (ip), vehicle: saline 101 % of control | dose: 200.0 micrograms/kg/injection, schedule: Q01DX Z (ip), vehicle: saline 89 % of control

CCOC(=O)c1nc(N)nc(N)c1Oc1ccccc1
inactive: dose: 50.0 mg/kg/injection, schedule: Q01DX001 (ip), vehicle: Klucel (hydroxypropylcellulose) (HPC) 92 % of control | [3] 93 % of control | [4] 92 % of control

Fc1cccc(/C=C2/c3cc(Cl)ccc3-c3c(Cl)cc(Cl)cc32)c1
inactive: [3] 93 % of control | dose: 100.0 mg/kg/injection, schedule: Q01DX009 (ip), vehicle: Klucel (hydroxypropylcellulose) (HPC) 88 % of control | [5] 91 % of control | [4] 91 % of control | dose: 200.0 mg/kg/injection, schedule: Q01DX009 (ip), vehicle: Klucel (hydroxypropylcellulose) (HPC) 89 % of control | [6] 93 % of control | [7] 88 % of control | dose: 400.0 mg/kg/injection, schedule: Q01DX009 (ip), vehicle: Klucel (hydroxypropylcellulose) (HPC) 96 % of control | [8] 88 % of control

CCCCCCCCC(=O)N(CCCC)CCCC
inactive: dose: 100.0 mg/kg/injection, schedule: Q01DX009 (ip), vehicle: carboxymethylcellulose (CMC) 97 % of control and 100 % of control | dose: 100.0 mg/kg/injection, schedule: Q04DX002 (ip), vehicle: carboxymethylcellulose (CMC) 94 % of control | dose: 200.0 mg/kg/injection, schedule: Q01DX009 (ip), vehicle: carboxymethylcellulose (CMC) 93 % of control and 100 % of control | dose: 200.0 mg/kg/injection, schedule: Q04DX002 (ip), vehicle: carboxymethylcellulose (CMC) 93 % of control | dose: 400.0 mg/kg/injection, schedule: Q01DX009 (ip), vehicle: carboxymethylcellulose (CMC) 89 % of control | dose: 400.0 mg/kg/injection, schedule: Q04DX002 (ip), vehicle: carboxymethylcellulose (CMC) 93 % of control

CC(=O)CCN1CCCCC1
inactive: dose: 20.0 mg/kg/injection, schedule: Q04DX003 (ip), vehicle: saline 124 % of control

ClC(Cl)(Cl)C(Cl)(Cl)OC(Cl)(Cl)C(Cl)(Cl)Cl
inactive: [3] 107 % of control | [5] 100 % of control | [4] 112 % of control | [6] 92 % of control | [7] 95 % of control | [8] 95 % of control

O=[N+]([O-])c1cc(Cl)c(O)c([N+](=O)[O-])c1O
inactive: [9] 103 % of control

O=C(O)/C(F)=C/c1ccccc1
inactive: dose: 50.0 mg/kg/injection, schedule: Q01DX001 (ip), vehicle: carboxymethylcellulose (CMC) 111 % of control | [10] 103 % of control

O=C(OC1C2C=CC1C1C(=O)NC21)c1ccccc1 (stereo unspecified)
inactive: [9] 97 % of control | dose: 150.0 mg/kg/injection, schedule: Q01DX001 (ip), vehicle: carboxymethylcellulose (CMC) 102 % of control | dose: 300.0 mg/kg/injection, schedule: Q01DX001 (ip), vehicle: carboxymethylcellulose (CMC) 113 % of control

[Cl][Pd][Cl].[NH-]CCN1CC1
inactive: dose: 25.0 mg/kg/injection, schedule: Q04DX002 (ip), vehicle: saline + alcohol 113 % of control | dose: 50.0 mg/kg/injection, schedule: Q04DX002 (ip), vehicle: saline + alcohol 102 % of control | dose: 100.0 mg/kg/injection, schedule: Q04DX002 (ip), vehicle: saline + alcohol 117 % of control | [1] 116 % of control

O=S(=O)(Cl)CCCBr
inactive: dose: 100.0 mg/kg/injection, schedule: Q01DX009 (ip), vehicle: saline sonified 93 % of control | dose: 200.0 mg/kg/injection, schedule: Q01DX009 (ip), vehicle: saline sonified 86 % of control

CCC[Si](C)(C)C
inactive: [10] 94 % of control | [11] 96 % of control | dose: 400.0 mg/kg/injection, schedule: Q01DX001 (ip), vehicle: carboxymethylcellulose (CMC) 89 % of control

CC1(C)N=C(N)N=C(N)N1c1cccc(C(=O)Nc2cccc(S(=O)(=O)F)c2)c1
inactive: dose: 6.25 mg/kg/injection, schedule: Q#A X018 (ip), vehicle: saline 97 % of control | dose: 12.5 mg/kg/injection, schedule: Q01DX009 (ip), vehicle: saline 103 % of control | dose: 12.5 mg/kg/injection, schedule: Q#A X018 (ip), vehicle: saline 101 % of control | dose: 25.0 mg/kg/injection, schedule: Q01DX009 (ip), vehicle: saline 101 % of control | dose: 25.0 mg/kg/injection, schedule: Q#A X018 (ip), vehicle: saline 101 % of control | dose: 50.0 mg/kg/injection, schedule: Q01DX009 (ip), vehicle: saline 95 % of control and 107 % of control | dose: 50.0 mg/kg/injection, schedule: Q#A X018 (ip), vehicle: saline 101 % of control | [12] 105 % of control | dose: 100.0 mg/kg/injection, schedule: Q01DX009 (ip), vehicle: saline 104 % of control | [13] 94 % of control

O=Nn1c2ccccc2c2ccccc21
inactive: dose: 100.0 mg/kg/injection, schedule: Q04DX003 (ip), vehicle: gum acacia 92 % of control | dose: 200.0 mg/kg/injection, schedule: Q04DX003 (ip), vehicle: gum acacia 95 % of control | dose: 400.0 mg/kg/injection, schedule: Q04DX003 (ip), vehicle: gum acacia 87 % of control

COC1OC(CO)C(O)C1n1cnc2c(SC)ncnc21 (stereo unspecified)
inactive: [1] 107 % of control | [2] 104 % of control

CCCCCCCCCCCC(=O)Nc1cc(C(C)C)ccc1C
inactive: [12] 87 % of control | dose: 100.0 mg/kg/injection, schedule: Q04DX003 (ip), vehicle: saline 88 % of control | [13] 86 % of control | dose: 400.0 mg/kg/injection, schedule: Q01DX001 (ip), vehicle: saline 91 % of control

Cn1cnc2c(SCc3ccccc3)ncnc21
inactive: dose: 75.0 mg/kg/injection, schedule: Q01DX009 (ip), vehicle: saline with Tween-80 97 % of control | [14] 104 % of control | [15] 117 % of control

CC(=O)Oc1c(Br)c(-c2cc([N+](=O)[O-])c(C)c([N+](=O)[O-])c2C)c(OC(C)=O)c(Br)c1-c1cc([N+](=O)[O-])c(C)c([N+](=O)[O-])c1C
inactive: [14] 104 % of control | [15] 91 % of control | dose: 400.0 mg/kg/injection, schedule: Q01DX009 (ip), vehicle: saline with Tween-80 88 % of control

Nc1ncnc2cc[nH]c12
inactive: dose: 88.0 mg/kg/injection, schedule: Q01DX001 (ip), vehicle: carboxymethylcellulose (CMC) 102 % of control and 104 % of control | dose: 133.0 mg/kg/injection, schedule: Q01DX001 (ip), vehicle: carboxymethylcellulose (CMC) 96 % of control and 104 % of control | [11] 102 % of control and 106 % of control

— PubChem BioAssay AID248 (DTP/NCI, 2004)
